# Measurements as given in patent US20250345277A1, “Ionizable Liposome, Preparation Thereof, and Application Thereof in Gene Delivery” (MAXIRNA (ZHEJIANG) TECHNOLOGY CO. LTD., priority 2021, published 2025).
# Columns and labels:
# [1] = Size and polydispersity index PDI of lipid nanoparticles (Malvern Zetasizer Nano ZS); type: physicochemical; details: LNP ionizable lipid/DOPE/cholesterol/DSPE-PEG2000 35/16/46.5/2.5 mol% encapsulating EGFP mRNA; for Particle Size: in nm (unit assumed)
# Experimental: (§1) The ionizable lipid compound of Example 1 was dissolved in ethanol with DOPE, cholesterol and DSPE-PEG2000 (all purchased from AVT (Shanghai) Pharmaceutical Technology Co., Ltd.) at a molar ratio of 35:16:46.5:2.5 to prepare ethanol lipid solution, and enhanced green fluorescent protein (EGFP) mRNAs (Shanghai Maximna Pharmaceutical Engineering Co., Ltd., JN-4201) were diluted in 20 mM citrate buffer (pH=6.1) to obtain mRNA aqueous solution. Ethanol lipid solution and mRNA aqueous solution were mixed at a volume ratio of 1:3 by using a microfluidic device (Micro&Nano (Shanghai) Instrument Technology Co., Ltd., model: INano™ML), LNPs were prepared with a weight ratio of approximately 10:1 between total lipids and mRNAs. The medium was replaced by ultrafiltration, ethanol was removed and volumed with DPBS. Finally, the lipid nanoparticles were filtered through a 0.2 μm sterile filter to obtain a LNP formulation encapsulating eGFP mRNA using ionizable lipid/DOPE/cholesterol/DSPE-PEG2000 (35/16/46.5/2.5 mol %), the concentration of mRNAs being 0.002 mg/mL-0.5 mg/mL.
# Using Malvern Zetasizer Nano ZS (Malvern UK), the size and polydispersity index PDI of lipid nanoparticles were measured at […].
# [2] = Entrapment efficiency of LNP preparation encapsulating EGFP mRNA; type: physicochemical; details: LNP ionizable lipid/DOPE/cholesterol/DSPE-PEG2000 35/16/46.5/2.5 mol% encapsulating EGFP mRNA
# Experimental: as §1, with “mg/mL. […]” for “mg/mL.”
# TIL cells = experiment: In vitro transfection of TIL cells with EGFP mRNA LNP preparation; type: cell-based, human
# Text: The description is based on peripheral blood mononuclear cells PBMC (Shanghai Oribiotech Co., Ltd.), human peripheral blood leukemia T cell Jurkat (ATCC), tumor infiltrating lymphocyte TIL (isolated from resected tumor tissue of a liver cancer patient, the preparation method refers to CN114763530A), mouse bone marrow-derived dendritic cells DC2.4 (Cell Bank of the Chinese Academy of Sciences), and Chinese hamster ovary cells CHO (ATCC) were used as verified cell lines for liposome transfection. PBMC, Jurkat, and TIL cells grew in suspension, while DC2.4 and CHO cells grew by adherent culture. All the operation steps of cell culture must strictly abide by the prescribed procedures, and sterile reagents is used to perform aseptic operations under a sterile workbench. The main steps are as follows: • 1) Cell recovery: the preserved cell cryopreservation solution was taken out of the −80° C. refrigerator, and was immediately put in a 37° C. water bath for rapid and continuous shaking, and was completely melted within one minute. Fresh medium was added to the 15 mL centrifuge tube in advance, and the cell solution was added to the centrifuge tube in a biological safety cabinet. A centrifuge tube of the same quality was taken and placed symmetrically in a centrifuge, centrifuged at a low speed at 1200 rpm for 5 min. After centrifugation, the supernatant was removed, and an appropriate amount of medium was slowly added along the tube wall. After the cells were evenly dispersed by blowing gently, the cell suspension was pipette and added to the culture bottle prepared in advance. The state and distribution of the cells in the early stage of recovery were observed under a microscope. The culture bottle was placed in a 5% CO2 incubator and incubated at 37° C., and the recovery time was recorded. • 2) Cell subculture: Under the microscope, if the cell density in the field of view reaches 80%-90%, the cells can be subcultured. Adherent cells need to be digested with trypsin. […]
# Jurkat cells = experiment: In vitro transfection of Jurkat cells with EGFP mRNA LNP preparation; type: cell-based, human
# Text: (§2) The description is based on peripheral blood mononuclear cells PBMC (Shanghai Oribiotech Co., Ltd.), human peripheral blood leukemia T cell Jurkat (ATCC), tumor infiltrating lymphocyte TIL (isolated from resected tumor tissue of a liver cancer patient, the preparation method refers to CN114763530A), mouse bone marrow-derived dendritic cells DC2.4 (Cell Bank of the Chinese Academy of Sciences), and Chinese hamster ovary cells CHO (ATCC) were used as verified cell lines for liposome transfection. PBMC, Jurkat, and TIL cells grew in suspension, while DC2.4 and CHO cells grew by adherent culture. All the operation steps of cell culture must strictly abide by the prescribed procedures, and sterile reagents is used to perform aseptic operations under a sterile workbench. The main steps are as follows: • 1) Cell recovery: the preserved cell cryopreservation solution was taken out of the −80° C. refrigerator, and was immediately put in a 37° C. water bath for rapid and continuous shaking, and was completely melted within one minute. […] The culture bottle was placed in a 5% CO2 incubator and incubated at 37° C., and the recovery time was recorded. • 2) Cell subculture: Under the microscope, if the cell density in the field of view reaches 80%-90%, the cells can be subcultured. […]
# CHO cells = experiment: In vitro transfection of CHO cells with EGFP mRNA LNP preparation; type: cell-based, Chinese hamster
# Text: as §2
# [3] = In vitro stability test of LNP preparation stored at 4-8 °C; type: physicochemical; details: stored at 4-8° C. for 16 weeks; transfection tested on DC2.4
# Experimental: The preparation from Example 2 was stored at 4° C.-8° C. Samples were taken every other week to test the transfection performance of the samples on DC2.4, the size of the nanoparticles and the polydispersity index PDI. The whole process lasted 16 weeks. […] Other LNP preparations were stored at 4-8° C. for 16 weeks, and the particle size, PDI, and cell transfection efficiency also maintained the initial state.
# [4] = after in vitro transfection, ApoE4 did not affect viability
Compound,PDI [1],Particle Size [1],Entrapment Efficiency [2],other results
CCCCCCCCCCCCCCC(O)CN(CCOCCOCCOCCN(CCOCCOCCOCCN(CC(O)CCCCCCCCCCCCCC)CC(O)CCCCCCCCCCCCCC)CCN1CCN(CCOCCOCCOCCN(CC(O)CCCCCCCCCCCCCC)CC(O)CCCCCCCCCCCCCC)CC1)CC(O)CCCCCCCCCCCCCC [D-C16],0.117,91.6,86.56%,–
CCCCCCCCCCC(O)CN(CCOCCOCCOCCN(CCOCCOCCOCCN(CC(O)CCCCCCCCCC)CC(O)CCCCCCCCCC)CCN1CCN(CCOCCOCCOCCN(CC(O)CCCCCCCCCC)CC(O)CCCCCCCCCC)CC1)CC(O)CCCCCCCCCC [D-C12],0.073,90.5,91.80%,–
"CCCCCCCCCCC(O)CN(CCOCCN(CCOCCN(CC(O)CCCCCCCCCC)CC(O)CCCCCCCCCC)CCN1CCN(CCOCCN(CC(O)CCCCCCCCCC)CC(O)CCCCCCCCCC)CC1)CC(O)CCCCCCCCCC (centres unmarked) [B-C12, 19-(2-(4-(2-(2-(di(2-hydroxydodecyl)amino)ethoxy)ethyl)piperazin-1-yl)ethyl)-13, 15-bis(2-hydroxydodecyl)-16,22-dioxa-13,19,25-triazaheptakadecane-11,27-diol]",0.147,102.9,89.93%,–
CCCCCCCCCCCCC(O)CN(CCN1CCN(CCN(CCN(CC(O)CCCCCCCCCCCC)CC(O)CCCCCCCCCCCC)CCN(CC(O)CCCCCCCCCCCC)CC(O)CCCCCCCCCCCC)CC1)CC(O)CCCCCCCCCCCC (centres unmarked) [A-C14],0.107,97.1,80.31%,–
CCCCCCCCCCCCC(O)CN(CCOCCN(CCOCCN(CC(O)CCCCCCCCCCCC)CC(O)CCCCCCCCCCCC)CCN1CCN(CCOCCN(CC(O)CCCCCCCCCCCC)CC(O)CCCCCCCCCCCC)CC1)CC(O)CCCCCCCCCCCC (centres unmarked) [B-C14],0.133,90.5,95.21%,"cell viability by flow cytometry (FIG. 1) (TIL cells; [4]): high viability; transfection efficiency (FIG. 2) (TIL cells; in the absence of AopE4): low transfection efficiency; change of transfection efficiency with ApoE4 (FIG. 3) (TIL cells; with ApoE4 versus without): increased; cell viability by flow cytometry (FIG. 1) (Jurkat cells; [4]): high viability; transfection efficiency (FIG. 2) (Jurkat cells; in the absence of AopE4): high transfection efficiency; cell viability by flow cytometry (FIG. 1) (CHO cells; after in vitro transfection): high viability; transfection efficiency (FIG. 2) (CHO cells; in the absence of AopE4): high transfection efficiency; particle size, PDI and cell transfection efficiency on storage (FIG. 8) [3]: remained in the initial state"
CCCCCCCCCCCCCCCCC(O)CN(CCN1CCN(CCN(CCN(CC(O)CCCCCCCCCCCCCCCC)CC(O)CCCCCCCCCCCCCCCC)CCN(CC(O)CCCCCCCCCCCCCCCC)CC(O)CCCCCCCCCCCCCCCC)CC1)CC(O)CCCCCCCCCCCCCCCC (centres unmarked) [A-C18],0.144,96.9,90.56%,–
CCCCCCCCCCCCC(O)CN(CCOCCOCCOCCN(CCOCCOCCOCCN(CC(O)CCCCCCCCCCCC)CC(O)CCCCCCCCCCCC)CCN1CCN(CCOCCOCCOCCN(CC(O)CCCCCCCCCCCC)CC(O)CCCCCCCCCCCC)CC1)CC(O)CCCCCCCCCCCC [D-C14],0.168,97.2,92.36%,–
CCCCCCCCCCCCCCCCC(O)CC(CCOCCOCCOCCN(CCOCCOCCOCCN(CC(O)CCCCCCCCCCCCCCCC)CC(O)CCCCCCCCCCCCCCCC)CCN1CCN(CCOCCOCCOCCN(CC(O)CCCCCCCCCCCCCCCC)CC(O)CCCCCCCCCCCCCCCC)CC1)CC(O)CCCCCCCCCCCCCCCC [D-C18],0.105,103.0,88.54%,–
CCCCCCCCCCC(O)CN(CCOCCOCCN(CCOCCOCCN(CC(O)CCCCCCCCCC)CC(O)CCCCCCCCCC)CCN1CCN(CCOCCOCCN(CC(O)CCCCCCCCCC)CC(O)CCCCCCCCCC)CC1)CC(O)CCCCCCCCCC (centres unmarked) [C-C12],0.070,92.5,95.24%,–
CCCCCCCCCCCCC(O)CN(CCOCCOCCOCCN(CCOCCOCCOCCN(CC(O)CCCCCCCCCCCC)CC(O)CCCCCCCCCCCC)CCN1CCN(C)CC1)CC(O)CCCCCCCCCCCC (centres unmarked) [H-C14],0.099,94.8,91.67%,–
CCCCCCCCCCCCC(O)CN(CCOCCOCCN(CCOCCOCCN(CC(O)CCCCCCCCCCCC)CC(O)CCCCCCCCCCCC)CCN1CCN(C)CC1)CC(O)CCCCCCCCCCCC (centres unmarked) [G-C14],0.180,86.4,84.02%,–
CCCCCCCCCCC(O)CN(CCN1CCN(CCN(CCN(CC(O)CCCCCCCCCC)CC(O)CCCCCCCCCC)CCN(CC(O)CCCCCCCCCC)CC(O)CCCCCCCCCC)CC1)CC(O)CCCCCCCCCC (centres unmarked) [A-C12],0.173,91.6,89.80%,–
CCCCCCCCCCCCCCC(O)CN(CCN1CCN(CCN(CCN(CC(O)CCCCCCCCCCCCCC)CC(O)CCCCCCCCCCCCCC)CCN(CC(O)CCCCCCCCCCCCCC)CC(O)CCCCCCCCCCCCCC)CC1)CC(O)CCCCCCCCCCCCCC (centres unmarked) [A-C16],0.183,90.8,90.30%,–
CCCCCCCCCCCCC(O)CN(CCOCCN(CCOCCN(CC(O)CCCCCCCCCCCC)CC(O)CCCCCCCCCCCC)CCN1CCN(C)CC1)CC(O)CCCCCCCCCCCC (centres unmarked) [F-C14],0.131,82.4,95.21%,–
CCCCCCCCCCCCC(O)CN(CCN(CCN1CCN(C)CC1)CCN(CC(O)CCCCCCCCCCCC)CC(O)CCCCCCCCCCCC)CC(O)CCCCCCCCCCCC (centres unmarked) [E-C14],0.119,85.2,85.62%,–
